{"source": "patent US20240125801A1", "about": "“MARKER FOR DIAGNOSIS OF NONALCOHOLIC FATTY LIVER DISEASE” (BREXOGEN INC., priority 2021, published 2024)", "test_system": "mice model of NASH induced by MC-deficient diet", "test": "MCD diet-induced NASH mice model", "format": "in vivo, C57BL/6 mice", "settings": "BxC-V37e 400 μg/head i.v. or dulaglutide 2 nmol/kg s.c., 4 weeks, FIG. 4", "procedure": "Six-week-old C57BL/6 male wild-type mice were obtained from Koatech Co., Ltd. and fed either chow diet (n=6) or a methionine/choline-deficient (MCD) diet (n=15) for […]. Animal care and procedures were approved in the rodent animal facility area of Knotus Co., Ltd. (Korea; Approval Number: 19-KE-265). After the MCD diet was fed for 18 weeks, 2 nmol/kg dulaglutide (GLP-1 receptor agonist) was subcutaneously injected into mice every other day for 4 weeks, and 400 μg/head BxC-e and BxC-V37e were intravenously injected once a day, three times a week, for 4 weeks. At the end of the experiments, the mice were anesthetized, and their serum and liver tissues were collected. […]\nSerum samples were collected 4 weeks after the initiation of BxC-V37e injection, and the following parameters were measured using a blood biochemical analyzer (7180, Hitachi, Japan): ALT (Alanine transaminase), AST (Aspartate transaminase), TG (Triglyceride), glucose, TC (total cholesterol), HDL_C (high-density lipoprotein cholesterol), LDL_C (low-density lipoprotein cholesterol), LDH (lactate dehydrogenase), and GGT (gamma-glutamyltransferase).\nLiver tissues were fixed in 10% paraformaldehyde and subjected to general tissue treatment, such as cutting, dehydration, and paraffin embedding. […] Both steatosis and hypertrophy were evaluated at magnifications of 40× to 100×. […]"}
{"substance": "dulaglutide", "values": [{"measurement": "entire liver morphology (colour)", "value": "No difference"}]}
